# Data as given in ChEMBL document CHEMBL1139153, “Comparison of the in vitro apparent permeability and stability of opioid mimetic compounds with that of the native peptide” (Bioorg Med Chem Lett, 2007).
# Assay: Apparent permeability from apical to basolateral side of human Caco-2 cell membrane
# Assay type: ADME, cell-based
row,SMILES,Papp A→B [×10⁻⁶ cm/s]
1,Cc1cc(O)cc(C)c1CC(N)C(=O)NCCCCc1nc(O)c(CCCCNC(=O)C(N)Cc2c(C)cc(O)cc2C)nc1C (centres undefined),0.845
2,Cc1cc(O)cc(C)c1CC(N)C(=O)NCCCc1nc(O)c(CCCNC(=O)C(N)Cc2c(C)cc(O)cc2C)nc1C (centres undefined),0.547
3,Cc1cc(O)cc(C)c1CC(N)C(=O)NCCCCNC(=O)C(N)Cc1c(C)cc(O)cc1C (centres undefined),0.139
4,NC(=O)[C@H](Cc1ccccc1)NC(=O)[C@H](Cc1ccccc1)NC(=O)[C@@H]1CCCN1C(=O)[C@@H](N)Cc1ccc(O)cc1 [ENDOMORPHIN 2],0.0643
